{"source": "patent US4652549A", "about": "“Cardiac anti-hypertrophic agents” (Merck & Co., Inc., priority 1985, dated 1987)", "system": "cardiac hypertrophy", "test": "7-day continuous infusion, reversing cardiac hypertrophy (heart weight)", "format": "in vivo", "conditions": "30 pmole per kg per minute", "text": "Heart Weight (grams H2 O per 100 grams tissue)", "data": [{"substance": "Arg-Arg-Ser-Ser-Cys-Phe-Gly-Gly-Arg-Ile-Asp-Arg-Ile-Gly-Ala-Gln-Ser-Gly-Leu-Gly-Cys-Asn-Ser-Phe-Arg-Tyr (RRSSCFGGRIDRIGAQSGLGCNSFRY; printed: Arg-Arg-Ser-Ser-Cys-Phe-Gly-Gly-Arg-Ile-Asp-Arg-Ile-Gly-Ala-Gln-Ser-Gly-Leu-Gly-Cys-Asn-Ser-Phe-Arg-Tyr) [PEPTIDE OF EXAMPLE 5]", "values": [{"measurement": "Heart Weight", "setting": "NORMAL group, n = 22", "result": "0.45 + 0.02 grams H2 O per 100 grams tissu"}, {"measurement": "Heart Weight", "setting": "first group (heading not given, presumably hypertrophic animals), n = 23, statistically significant at p less than 0.05", "result": "0.70 + 0.03 grams H2 O per 100 grams tissu"}]}]}
